Experimental data reported in ChEMBL document CHEMBL1201862, “PubChem BioAssay data set” (2004).
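In this assay, cells in 96-well plates receive the compound at five concentrations for 48 hours. Endpoints are linearly interpolated between the surrounding concentrations. Here, GI50 denotes the concentration required for 50% inhibition of growth.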 The source made the active and inactive calls. Cut-off read from the data, not from the text of the source: active = GI50 up to about 1.1 µM and inactive = higher.

Columns and labels:
Test in all cases: DTP human tumour cell line panel, 48 h
SNB-75 = tested on: SNB-75
NCI-H460 = tested on: NCI-H460
SF-539 = tested on: SF-539
SNB-19 = tested on: SNB-19
NCI-H23 = tested on: NCI-H23
RXF 393 = tested on: RXF 393
UACC-62 = tested on: UACC-62
UACC-257 = tested on: UACC-257
SK-MEL-28 = tested on: SK-MEL-28
A498 = tested on: A498
Malme-3M = tested on: Malme-3M
HCC 2998 = tested on: HCC 2998
SW-620 = tested on: SW-620
HOP-92 = tested on: HOP-92
MOLT-4 = tested on: MOLT-4
COLO 205 = tested on: COLO 205
OVCAR-8 = tested on: OVCAR-8

Measured: GI50

Cc1ccc(NC(=O)C2C3C=CC(O3)C2C(=O)O)cc1 (stereo unspecified)
inactive: SNB-75 > 100 µM | NCI-H460 > 100 µM | SF-539 > 100 µM | SNB-19 > 100 µM | NCI-H23 > 100 µM | RXF 393 23.6 µM | UACC-62 > 100 µM | UACC-257 87.1 µM | SK-MEL-28 > 100 µM | A498 > 100 µM | Malme-3M > 100 µM | HCC 2998 > 100 µM | SW-620 8.83 µM | HOP-92 > 100 µM | MOLT-4 > 100 µM | COLO 205 45 µM | OVCAR-8 > 100 µM

CC(C)C(=O)Nc1nc2[nH]cnc2c(=O)[nH]1
inactive: SNB-75 > 100 µM | NCI-H460 > 100 µM | SF-539 > 100 µM | SNB-19 > 100 µM | NCI-H23 > 100 µM | RXF 393 > 100 µM | UACC-62 > 100 µM | UACC-257 > 100 µM | SK-MEL-28 > 100 µM | A498 > 100 µM | Malme-3M > 100 µM | HCC 2998 > 100 µM | SW-620 > 100 µM | HOP-92 > 100 µM | MOLT-4 > 100 µM | COLO 205 > 100 µM | OVCAR-8 > 100 µM

Nc1nc2ncn(CCO)c2c(=S)[nH]1
inactive: SNB-75 > 100 µM | NCI-H460 > 100 µM | SF-539 > 100 µM | SNB-19 > 100 µM | RXF 393 > 100 µM | UACC-62 > 100 µM | UACC-257 > 100 µM | SK-MEL-28 > 100 µM | A498 > 100 µM | Malme-3M > 100 µM | HCC 2998 > 100 µM | SW-620 > 100 µM | HOP-92 > 100 µM | COLO 205 > 100 µM | OVCAR-8 > 100 µM

CCc1cccc(C)c1NC(=O)NS(=O)(=O)c1ccc(C)cc1
inactive: SNB-75 35.2 µM | NCI-H460 > 100 µM | SF-539 > 100 µM | SNB-19 > 100 µM | NCI-H23 > 100 µM | RXF 393 > 100 µM | UACC-62 > 100 µM | UACC-257 > 100 µM | SK-MEL-28 > 100 µM | A498 > 100 µM | Malme-3M > 100 µM | HCC 2998 > 100 µM | SW-620 > 100 µM | HOP-92 > 100 µM | MOLT-4 > 100 µM | COLO 205 > 100 µM | OVCAR-8 > 100 µM

C=CCOCCCCC(C(C)=O)C(=O)OC (stereo unspecified)
inactive: SNB-75 > 100 µM | NCI-H460 > 100 µM | SF-539 > 100 µM | SNB-19 > 100 µM | NCI-H23 > 100 µM | RXF 393 > 100 µM | UACC-62 > 100 µM | UACC-257 > 100 µM | SK-MEL-28 > 100 µM | A498 > 100 µM | Malme-3M > 100 µM | HCC 2998 > 100 µM | SW-620 > 100 µM | HOP-92 54.8 µM | MOLT-4 > 100 µM | COLO 205 > 100 µM | OVCAR-8 > 100 µM

CCCCSN1C(=O)c2ccccc2C1=S
inactive: SNB-75 72.4 µM | NCI-H460 > 100 µM | SF-539 33.3 µM | SNB-19 > 100 µM | NCI-H23 > 100 µM | RXF 393 81.3 µM | UACC-62 55 µM | UACC-257 57.3 µM | SK-MEL-28 > 100 µM | A498 > 100 µM | Malme-3M 63.7 µM | HCC 2998 73.5 µM | SW-620 32.9 µM | HOP-92 41.1 µM | MOLT-4 18.5 µM | COLO 205 62.4 µM | OVCAR-8 60.4 µM

CC1(C)C(c2ccccc2)C12CCC1(C2=O)C(c2ccccc2)C1(C)C (stereo unspecified)
inactive: SNB-75 30.4 µM | SF-539 26.8 µM | SNB-19 28.8 µM | NCI-H23 18.9 µM | RXF 393 20.1 µM | UACC-62 32 µM | UACC-257 17.9 µM | SK-MEL-28 27.2 µM | A498 34.6 µM | Malme-3M 26.7 µM | HCC 2998 18.4 µM | SW-620 21.7 µM | HOP-92 11.7 µM | MOLT-4 18.9 µM | COLO 205 18.8 µM | OVCAR-8 34.1 µM

CCNC1=Nc2ccc(Cl)cc2C(c2ccccc2)=NN1
inactive: SNB-75 19 µM | SF-539 19.8 µM | SNB-19 41.7 µM | NCI-H23 27.5 µM | RXF 393 25.5 µM | UACC-62 14.6 µM | UACC-257 18 µM | SK-MEL-28 17.5 µM | A498 29.9 µM | Malme-3M 16.9 µM | HCC 2998 18.7 µM | SW-620 18 µM | HOP-92 24.4 µM | MOLT-4 25.2 µM | COLO 205 16.3 µM | OVCAR-8 26.8 µM

O=[N+]([O-])c1ccccc1[S+]([O-])c1ccccc1 (stereo unspecified)
inactive: SNB-75 22.1 µM | NCI-H460 53 µM | SF-539 70.6 µM | SNB-19 87.3 µM | NCI-H23 44.5 µM | RXF 393 84.1 µM | UACC-62 > 100 µM | UACC-257 20.7 µM | SK-MEL-28 > 100 µM | A498 63.2 µM | Malme-3M > 100 µM | HCC 2998 97.7 µM | SW-620 > 100 µM | HOP-92 71 µM | MOLT-4 57 µM | OVCAR-8 > 100 µM

COC(=O)c1cc2c(nc1C)-c1ccccc1OS2(=O)=O
inactive: SNB-75 17.9 µM | NCI-H460 > 100 µM | SF-539 54.5 µM | SNB-19 81.3 µM | NCI-H23 > 100 µM | RXF 393 32.6 µM | UACC-62 > 100 µM | UACC-257 > 100 µM | A498 > 100 µM | Malme-3M > 100 µM | HCC 2998 > 100 µM | SW-620 > 100 µM | HOP-92 24.6 µM | MOLT-4 > 100 µM | COLO 205 > 100 µM | OVCAR-8 79.8 µM

ON=C1CCC(c2ccccc2)CC1 (stereo unspecified)
inactive: SNB-75 > 100 µM | NCI-H460 > 100 µM | SF-539 > 100 µM | SNB-19 > 100 µM | NCI-H23 > 100 µM | RXF 393 > 100 µM | UACC-62 > 100 µM | UACC-257 > 100 µM | SK-MEL-28 > 100 µM | A498 > 100 µM | Malme-3M > 100 µM | HCC 2998 > 100 µM | SW-620 > 100 µM | HOP-92 > 100 µM | COLO 205 > 100 µM | OVCAR-8 > 100 µM

N=C(NC(=S)N1CCCCC1)N1CCCCC1
inactive: SNB-75 > 100 µM | NCI-H460 > 100 µM | SF-539 > 100 µM | SNB-19 > 100 µM | NCI-H23 > 100 µM | RXF 393 > 100 µM | UACC-62 > 100 µM | UACC-257 > 100 µM | SK-MEL-28 > 100 µM | A498 > 100 µM | Malme-3M > 100 µM | HCC 2998 > 100 µM | SW-620 > 100 µM | HOP-92 > 100 µM | MOLT-4 > 100 µM | OVCAR-8 > 100 µM
